From PubChem BioAssay (NCI)
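Five concentrations, 48 hours, 96-well plates. Abbreviation: GI50, concentration required for 50% inhibition of growth. Definition used: TGI = concentration required for complete inhibition of growth.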

How the values were obtained:
Assay in all cases: DTP human tumour cell line panel, 48 h
[1] = tested on: 786-0 renal
[2] = tested on: A498 renal
[3] = tested on: A549 NSCLC
[4] = tested on: ACHN renal
[5] = tested on: BT-549 breast
[6] = tested on: CAKI-1 renal
[7] = tested on: CCRF-CEM leukemia
[8] = tested on: COLO 205 colon
[9] = tested on: DU-145 prostate
[10] = tested on: EKVX NSCLC
[11] = tested on: HCC-2998 colon
[12] = tested on: HCT-116 colon
[13] = tested on: HCT-15 colon
[14] = tested on: HL-60(TB) leukemia
[15] = tested on: HOP-62 NSCLC
[16] = tested on: HOP-92 NSCLC
[17] = tested on: HS 578T breast
[18] = tested on: HT29 colon
[19] = tested on: IGROV1 ovarian
[20] = tested on: K-562 leukemia
[21] = tested on: KM12 colon
[22] = tested on: LOX IMVI melanoma
[23] = tested on: M14 melanoma
[24] = tested on: MALME-3M melanoma
[25] = tested on: MCF7 breast
[26] = tested on: MDA-MB-231 breast
[27] = tested on: MDA-MB-435
[28] = tested on: MOLT-4 leukemia
[29] = tested on: NCI-H226 lung
[30] = tested on: NCI-H23 lung
[31] = tested on: NCI-H460 lung
[32] = tested on: NCI-H522 lung
[33] = tested on: NCI/ADR-RES ovarian
[34] = tested on: OVCAR-3 ovarian
[35] = tested on: OVCAR-4 ovarian
[36] = tested on: OVCAR-5 ovarian
[37] = tested on: OVCAR-8 ovarian
[38] = tested on: PC-3 prostate
[39] = tested on: RPMI-8226 leukemia
[40] = tested on: RXF 393 renal
[41] = tested on: SF-268 CNS
[42] = tested on: SF-295 CNS
[43] = tested on: SF-539 CNS
[44] = tested on: SK-MEL-2 melanoma
[45] = tested on: SK-MEL-28 melanoma
[46] = tested on: SK-MEL-5 melanoma
[47] = tested on: SK-OV-3 ovarian
[48] = tested on: SN12C renal
[49] = tested on: SNB-19 CNS
[50] = tested on: SNB-75 CNS
[51] = tested on: SR leukemia
[52] = tested on: SW-620 colon
[53] = tested on: T-47D breast
[54] = tested on: TK-10 renal
[55] = tested on: U251 CNS
[56] = tested on: UACC-257 melanoma
[57] = tested on: UACC-62 melanoma
[58] = tested on: UO-31 renal

Structure (SMILES): O=c1oc2ccc(-c3ccc(F)cc3F)cc2c(=O)n1-c1ccc(Cl)c(C(F)(F)F)c1
- GI50 [1]: 2340 nM
- TGI [1]: 5680 nM
- GI50 [2]: 656 nM
- TGI [2]: 2400 nM
- GI50 [3]: 3330 nM
- TGI [3]: > 100000 nM
- GI50 [4]: 3120 nM
- TGI [4]: 9800 nM
- GI50 [5]: 2060 nM
- TGI [5]: 5170 nM
- GI50 [6]: 1910 nM
- TGI [6]: 6350 nM
- GI50 [7]: 2630 nM
- TGI [7]: 8750 nM
- GI50 [8]: 2890 nM
- TGI [8]: 8540 nM
- GI50 [9]: 3750 nM
- TGI [9]: > 100000 nM
- GI50 [10]: 2180 nM
- TGI [10]: 7540 nM
- GI50 [11]: 2410 nM
- TGI [11]: 6030 nM
- GI50 [12]: 1750 nM
- TGI [12]: 3490 nM
- GI50 [13]: 2040 nM
- TGI [13]: 8190 nM
- GI50 [14]: 2430 nM
- TGI [14]: 5350 nM
- GI50 [15]: 1930 nM
- TGI [15]: 4090 nM
- GI50 [16]: 1580 nM
- TGI [16]: 5390 nM
- GI50 [17]: 2420 nM
- TGI [17]: 8160 nM
- GI50 [18]: 3070 nM
- TGI [18]: > 100000 nM
- GI50 [19]: 3140 nM
- TGI [19]: > 100000 nM
- GI50 [20]: 2380 nM
- TGI [20]: > 100000 nM
- GI50 [21]: 2360 nM
- TGI [21]: 5850 nM
- GI50 [22]: 2180 nM
- TGI [22]: 4910 nM
- GI50 [23]: 2450 nM
- TGI [23]: 6790 nM
- GI50 [24]: 2190 nM
- TGI [24]: 5730 nM
- GI50 [25]: 2450 nM
- TGI [25]: > 100000 nM
- GI50 [26]: 2250 nM
- TGI [26]: 6930 nM
- GI50 [27]: 3070 nM
- TGI [27]: 9830 nM
- GI50 [28]: 2330 nM
- TGI [28]: 5450 nM
- GI50 [29]: 2030 nM
- TGI [29]: 6110 nM
- GI50 [30]: 1830 nM
- TGI [30]: 4590 nM
- GI50 [31]: 2960 nM
- TGI [31]: > 100000 nM
- GI50 [32]: 2090 nM
- TGI [32]: 8970 nM
- GI50 [33]: 2490 nM
- TGI [33]: 8890 nM
- GI50 [34]: 3170 nM
- TGI [34]: > 100000 nM
- GI50 [35]: 3160 nM
- TGI [35]: > 100000 nM
- GI50 [36]: 4310 nM
- TGI [36]: > 100000 nM
- GI50 [37]: 2990 nM
- TGI [37]: > 100000 nM
- GI50 [38]: 2950 nM
- TGI [38]: 35800 nM
- GI50 [39]: 2100 nM
- TGI [39]: 5900 nM
- GI50 [40]: 1700 nM
- TGI [40]: 4590 nM
- GI50 [41]: 2510 nM
- TGI [41]: 9130 nM
- GI50 [42]: 1810 nM
- TGI [42]: 3620 nM
- GI50 [43]: 2540 nM
- TGI [43]: 7090 nM
- GI50 [44]: 1990 nM
- TGI [44]: 4760 nM
- GI50 [45]: 2050 nM
- TGI [45]: 5770 nM
- GI50 [46]: 1600 nM
- TGI [46]: 3050 nM
- GI50 [47]: 2010 nM
- TGI [47]: 5170 nM
- GI50 [48]: 2600 nM
- TGI [48]: 11700 nM
- GI50 [49]: 3650 nM
- TGI [49]: > 100000 nM
- GI50 [50]: 1700 nM
- TGI [50]: 4200 nM
- GI50 [51]: 2430 nM
- TGI [51]: 8800 nM
- GI50 [52]: 3160 nM
- TGI [52]: 11700 nM
- GI50 [53]: 585 nM
- TGI [53]: 4340 nM
- GI50 [54]: 4410 nM
- TGI [54]: 19100 nM
- GI50 [55]: 2360 nM
- TGI [55]: 12500 nM
- GI50 [56]: 1850 nM
- TGI [56]: 6440 nM
- GI50 [57]: 1550 nM
- TGI [57]: 4150 nM
- GI50 [58]: 2440 nM
- TGI [58]: 8400 nM

Structure (SMILES): O=S(=O)(Nc1ccc(F)c(Cl)c1)c1ccc(-c2cnc(C3CC3)o2)cc1
- GI50 [1]: 495 nM
- TGI [1]: 13100 nM
- GI50 [2]: 156 nM
- TGI [2]: 823 nM
- GI50 [3]: 773 nM
- TGI [3]: 13100 nM
- GI50 [4]: 533 nM
- TGI [4]: 12000 nM
- GI50 [5]: 577 nM
- TGI [5]: 9010 nM
- GI50 [6]: 179 nM
- TGI [6]: 11700 nM
- GI50 [7]: 318 nM
- TGI [7]: 28900 nM
- GI50 [8]: 375 nM
- TGI [8]: 4690 nM
- GI50 [9]: 592 nM
- TGI [9]: 12200 nM
- GI50 [10]: 609 nM
- TGI [10]: 11900 nM
- GI50 [11]: 1130 nM
- TGI [11]: 7900 nM
- GI50 [12]: 334 nM
- TGI [12]: 10400 nM
- GI50 [13]: 113 nM
- TGI [13]: 11200 nM
- GI50 [14]: 213 nM
- TGI [14]: 2160 nM
- GI50 [15]: 453 nM
- TGI [15]: 14400 nM
- GI50 [16]: 367 nM
- TGI [16]: 3940 nM
- GI50 [17]: 280 nM
- TGI [17]: 4530 nM
- GI50 [18]: 259 nM
- TGI [18]: 2560 nM
- GI50 [19]: 418 nM
- TGI [19]: 12300 nM
- GI50 [20]: 62.3 nM
- TGI [20]: > 52800 nM
- GI50 [21]: 151 nM
- TGI [21]: 9300 nM
- GI50 [22]: 401 nM
- TGI [22]: 13500 nM
- GI50 [23]: 264 nM
- TGI [23]: 7130 nM
- GI50 [24]: 589 nM
- TGI [24]: 16100 nM
- GI50 [25]: 126 nM
- TGI [25]: 9830 nM
- GI50 [26]: 727 nM
- TGI [26]: 11000 nM
- GI50 [27]: 31.3 nM
- TGI [27]: 187 nM
- GI50 [28]: 396 nM
- TGI [28]: 88200 nM
- GI50 [29]: 822 nM
- TGI [29]: 10100 nM
- GI50 [30]: 593 nM
- TGI [30]: 11300 nM
- GI50 [31]: 377 nM
- TGI [31]: 4290 nM
- GI50 [32]: 164 nM
- TGI [32]: 3750 nM
- GI50 [33]: 252 nM
- TGI [33]: 8760 nM
- GI50 [34]: 154 nM
- TGI [34]: 4010 nM
- GI50 [35]: 1200 nM
- TGI [35]: 11700 nM
- GI50 [36]: 798 nM
- TGI [36]: 13400 nM
- GI50 [37]: 588 nM
- TGI [37]: 14600 nM
- GI50 [38]: 322 nM
- TGI [38]: 12300 nM
- GI50 [39]: 388 nM
- TGI [39]: > 31900 nM
- GI50 [40]: 196 nM
- TGI [40]: 1280 nM
- GI50 [41]: 1240 nM
- TGI [41]: 11300 nM
- GI50 [42]: 199 nM
- TGI [42]: 1490 nM
- GI50 [43]: 305 nM
- TGI [43]: 1800 nM
- GI50 [44]: 657 nM
- TGI [44]: 14000 nM
- GI50 [45]: 1730 nM
- TGI [45]: 14500 nM
- GI50 [46]: 316 nM
- TGI [46]: 1670 nM
- GI50 [47]: 728 nM
- TGI [47]: 14400 nM
- GI50 [48]: 663 nM
- TGI [48]: 10800 nM
- GI50 [49]: 389 nM
- TGI [49]: 13700 nM
- GI50 [50]: 137 nM
- TGI [50]: 547 nM
- GI50 [51]: 83.8 nM
- TGI [51]: > 42300 nM
- GI50 [52]: 159 nM
- TGI [52]: 13900 nM
- GI50 [53]: 361 nM
- TGI [53]: 13100 nM
- GI50 [54]: 1110 nM
- TGI [54]: 8290 nM
- GI50 [55]: 438 nM
- TGI [55]: 13700 nM
- GI50 [56]: 1120 nM
- TGI [56]: 10100 nM
- GI50 [57]: 183 nM
- TGI [57]: 5510 nM
- GI50 [58]: 584 nM
- TGI [58]: 6370 nM
